Where two headings read alike, the source gives them in different places.
Columns and labels:
Format in all cases: cell-based
Aβ-38 = experiment: MSD Human (6E10) Ab 3-PLEX elisa, conditioned media of 2B7 cells: Aβ-38; conditions: for IC50: Aβ-38 (superscript a)
Experimental: (§1) Assays were conducted to determine the ability of a Compound of Formula I to modulate […], and Aβ-38.
(§2) Plates with capture antibodies were blocked for 1-2 hours at room temperature with 150 μL of the manufactures blocking reagent.
(§3) Conditioned Media: • Cultured 2B7 cells in 96 well plate with 250 uL of media per well until confluent; • Prepared serial dilutions of compounds in DMSO at 100× the final desired concentration; • Washed wells with 2B7 cells 1× with 250 uL of media; • Diluted DMSO stocks 1:100 into media: • Added 250 μL of media containing compounds (1% DMSO) to wells with 2B7 cells for 5 hours at 37° C.
(§4) Elisa Sample Prep: • Diluted conditioned media: 1 part media with 1% DMSO and 1 part blocking buffer; • 150 μL of the 250 μL of conditioned media were used.
(§5) […] CURVE SAMPLE PREP: Prepared per manufacturer's protocol (see above) • Seven point standard curve samples were prepared that contained Aβ-42, Aβ-40, and Aβ-38. The highest concentration of Aβ-42 and Aβ-3-38 was 3,000 pg/mL and the highest concentration of Aβ-40 was 10,000 pg/mL. Subsequent serial dilutions were 1:3 and the final composition of each sample was 1 part blocking buffer and 1 part cell medium containing 1% DMSO.
(§6) Overnight Sample Incubation: • Blocked plates are washed 5× with MSD wash buffer with a plate washer • 25 uL of detection antibody and blocker G reagent in MSD blocking solution is added • 25 uL of samples (1 part conditioned media containing 1% DMSO and 1 part MSD blocking buffer) are then added. • plates are incubated overnight at 4 degrees C. or 2 hours at room temp
(§7) Final Wash and Readout: • Wash wells 5× with MSD wash buffer • Added 150 μL 2×MSD read buffer • Read with MSD imager.
(§8) A-Beta peptide levels for each peptide are calculated from the standard curve using the MSD software provided with the MSD 2400 Imager. Percent vehicle values for each compound dosage were then calculated and fit to a 4 parameter curve generating IC50 values.

Aβ-42 = experiment: MSD Human (6E10) Ab 3-PLEX elisa, conditioned media of 2B7 cells: Aβ-42; conditions: for IC50: Aβ-42 (superscript c)
Experimental: as §1, §2, §3, §4, §5, §6, §7, §8

Aβ-40 = experiment: MSD Human (6E10) Ab 3-PLEX elisa, conditioned media of 2B7 cells: Aβ-40; conditions: for IC50: Aβ-40 (superscript b)
Experimental: as §1, §2, §3, §4, §5, §6, §7, §8

[1] = Homo sapiens, read-out: 50% reduction value
[2] = Homo sapiens, read-out: IC50 range

SMILES	IC50 (Aβ-38; [1])	IC50 (Aβ-42; [1])	IC50 (Aβ-40; [1])	IC50 (Aβ-38; [2])	further results
CO[C@@H]([C@H]1C[C@@H](C)[C@H]2[C@H](O1)[C@H](O)[C@@]1(C)C3CC[C@H]4C(C)(C)[C@@H](O[C@H]5CN(C6COC6)CCO5)CC[C@@]45C[C@@]35CC[C@]21C)C(C)(C)O (stereo partly drawn)	< 1000 nM	< 1000 nM	1000 to 10000 nM		
CCO[C@@H](C1C[C@@H](C)[C@H]2C(O1)[C@H](O)[C@@]1(C)C3CC[C@H]4C(C)(C)C(OC(=O)NC)CC[C@@]45C[C@@]35CC[C@]21C)C(C)(C)O (stereo partly drawn)	< 1000 nM	< 1000 nM			inhibition at 20 µM (Aβ-40; Homo sapiens, Aβ-40, 20 μM): > 75%
CC1CC(C(OC(=O)C2CC2)C(C)(C)O)OC2C1C1(C)CCC34CC35CCC(O)C(C)(C)C5CCC4C1(C)C2O (stereo not drawn) [drawing 1214]					IC50 (Aβ-38; read-out: 50% reduction value): 1000 to 10000 nM; IC50 (Aβ-42; read-out: 50% reduction value): < 1000 nM; IC50 (Aβ-40; read-out: 50% reduction value): 1000 to 10000 nM
C[C@@H]1CC(CC(=O)O)OC2[C@H]1[C@@]1(C)CC[C@@]34C[C@@]35CC[C@H](O[C@H]3CN(C(=O)CC6CC6)CCO3)C(C)(C)[C@@H]5CCC4[C@]1(C)[C@H]2O (stereo partly drawn)				> 10000 nM	IC50 (Aβ-42; [2]): 1000 to 10000 nM; IC50 (Aβ-40; [2]): > 10000 nM
CC(C)[C@@H](OC(=O)N1CCC1)C1C[C@@H](C)[C@H]2C(O1)[C@H](O)[C@@]1(C)C3CC[C@H]4C(C)(C)C(OC(=O)N5CC(NCC(F)(F)F)C5)CC[C@@]45C[C@@]35CC[C@]21C (stereo partly drawn)	1000 to 10000 nM	< 1000 nM	> 10000 nM		
CC1CC(C(=O)O)OC2C1C1(C)CCC34CC35CCC(O)C(C)(C)C5CCC4C1(C)C2O (stereo not drawn) [drawing 1208]					% Inh. (range) (Aβ-38; Aβ-38, 20 μM): F^a (20 μM) F^b (20 μM) F^c (20 μM) (% inhibition of <25%); % Inh. (range) (Aβ-42; Aβ-42, 20 μM): F^a (20 μM) F^b (20 μM) F^c (20 μM) (% inhibition of <25%); % Inh. (range) (Aβ-40; Aβ-40, 20 μM): F^a (20 μM) F^b (20 μM) F^c (20 μM) (% inhibition of <25%)
CC(C)C(=O)N1CCO[C@@H](O[C@H]2CC[C@]34C[C@]35CC[C@]3(C)C6C(OC(CN(C)C(=O)N(C)C)C[C@H]6C)[C@H](O)[C@@]3(C)C5CC[C@H]4C2(C)C)C1 (stereo partly drawn)	< 10000 nM	> 10000 nM		1000 to 10000 nM	inhibition at 20 µM (Aβ-42; Homo sapiens, Aβ-42, 20 μM): 25 to 75%; inhibition at 20 µM (Aβ-40; Homo sapiens, Aβ-40, 20 μM): 25 to 75%
C[C@@H]1CC(COC(N)=O)OC2[C@H]1[C@@]1(C)CC[C@@]34C[C@@]35CC[C@H](O)C(C)(C)[C@@H]5CCC4[C@]1(C)[C@H]2O (stereo partly drawn)	> 10000 nM		> 10000 nM		inhibition at 20 µM (Aβ-38; Homo sapiens, Aβ-38, 20 μM): 25 to 75%; inhibition at 20 µM (Aβ-42; Homo sapiens, Aβ-42, 20 μM): 25 to 75%
CCNC(=O)O[C@H](C(C)C)C1C[C@@H](C)[C@H]2C(O1)[C@H](O)[C@@]1(C)C3CC[C@H]4C(C)(C)C(OC(=O)NC5CNC5)CC[C@@]45C[C@@]35CC[C@]21C (stereo partly drawn)	< 1000 nM	< 1000 nM	1000 to 10000 nM	< 1000 nM	IC50 (Aβ-42; [2]): < 1000 nM; IC50 (Aβ-40; [2]): > 10000 nM
COC(=O)OCC1C[C@@H](C)[C@H]2C(O1)[C@H](O)[C@@]1(C)C3CC[C@H]4C(C)(C)[C@@H](OC5CN(C(=O)CC6CC6)CCO5)CC[C@@]45C[C@@]35CC[C@]21C (stereo partly drawn)				1000 to 10000 nM	inhibition at 100 µM (Aβ-42; Homo sapiens, Aβ-42, 100 μM): 25 to 75%; inhibition at 100 µM (Aβ-40; Homo sapiens, Aβ-40, 100 μM): 25 to 75%
C[C@@H]1CC([C@@H]2OCOC2(C)C)OC2[C@H]1[C@@]1(C)CC[C@@]34C[C@@]35CCC(O[C@H]3CN(C6COC6)CCO3)C(C)(C)[C@@H]5CCC4[C@]1(C)[C@H]2O (stereo partly drawn)	1000 to 10000 nM	> 10000 nM			inhibition at 20 µM (Aβ-40; Homo sapiens, Aβ-40, 20 μM): 25 to 75%
CNC(=O)OC1CC[C@]23C[C@]24CC[C@]2(C)[C@@H]5C(OC([C@H](OC(=O)N6CCC6)C(C)C)C[C@H]5C)[C@H](O)[C@@]2(C)C4CC[C@H]3C1(C)C (stereo partly drawn)	< 1000 nM	< 1000 nM	1000 to 10000 nM	< 1000 nM	IC50 (Aβ-42; [2]): < 1000 nM; IC50 (Aβ-40; [2]): 1000 to 10000 nM
CC(C)[C@@H](OC(=O)N1CCC1)C1C[C@@H](C)[C@H]2C(O1)[C@H](O)[C@@]1(C)C3CC[C@H]4C(C)(C)C(OC(=O)NC5CNC5)CC[C@@]45C[C@@]35CC[C@]21C (stereo partly drawn)	< 1000 nM	< 1000 nM	1000 to 10000 nM	< 1000 nM	IC50 (Aβ-42; [2]): < 1000 nM; IC50 (Aβ-40; [2]): 1000 to 10000 nM
CC1CC(C(OC(=O)C2CCC2)C(C)(C)O)OC2C1C1(C)CCC34CC35CCC(O)C(C)(C)C5CCC4C1(C)C2O (stereo not drawn) [drawing 1216]					IC50 (Aβ-38; read-out: 50% reduction value): 1000 to 10000 nM; IC50 (Aβ-42; read-out: 50% reduction value): < 1000 nM; IC50 (Aβ-40; read-out: 50% reduction value): 1000 to 10000 nM

Source: US20110251379A1, “COMPOUNDS USEFUL FOR TREATING NEURODEGENERATIVE DISORDERS” (Satori Pharmaceuticals, Inc., priority 2010, published 2011)
